The assay can be described thus: General observations in test persons using the diet with or without composition. The assay is classed as in vivo, human. The conditions noted are these: diet not adhered to, additional intake. The text has this:
It was observed that the application of the diet according to the invention by itself leads to a weight reduction. In all the test persons, however, side effects such as weakness and/or indisposition as well as gluttonous attacks were reported. […] This is due to the fact that with the intake of the composition that contains one or several active agents which promote fat burning, utilizable energy is made available and the fat burning is accelerated. A test person reported at the start of the reduction cycle on changing over to the diet in accordance with the invention combined with the simultaneous intake of a composition that contains one or several active agents which promote fat burning, that after 2-3 days, the feeling of indisposition or gluttonousness were no longer to be felt and the diet could be well adhered to.
Therefore, the composition contains, in a preferred embodiment in addition to one or several active agents that promote fat burning, one or several active agents that reduce the breakdown of fat to fatty acids in the intestines. Active agents that reduce the breakdown of fat to fatty acids in the intestines are herein active agents that inhibit enzymes which catalyse the breakdown of the fats (tricylglycerines) to fatty acids and glycerines. […] For a body weight deviating from this value, the quantity is to be appropriately adjusted.

For the molecule `C[N+](C)(C)C[C@H](O)CC(=O)[O-]` [L-canitine, (3R)-hydroxy-4-(trimethylammonium)-butyrat], the weight loss entry is on record as “no weight loss”.

For the origin of these results see US20090081320A1, “Method for Weight Reduction” (priority 2005, published 2009).
